Results reported in publication PMC6017545, “Design, Synthesis, and Biological Evaluation of Novel 1,3,4-Thiadiazole Derivatives as Potential Antitumor Agents against Chronic Myelogenous Leukemia: Striking Effect of Nitrothiazole Moiety” (Molecules : A Journal of Synthetic Chemistry and Natural …, 2017).

Assays:
[1] = test system: K562 chronic myelogenous leukemia cell line; experiment: MTT cytotoxicity assay, K562 cells; assay type: cell-based, human; conditions: for IC50: Homo sapiens, K562, 48 h of incubation, mean ± SD, three independent experiments
Experimental: (§1) HeLa human cervical carcinoma cells were incubated in Dulbecco’s modified Eagle’s medium (DMEM) (Wako Pure Chemical Industries, Osaka, Japan) supplemented with 10% fetal bovine serum (FBS) (Equitech-Bio, Kerrville, TX, USA). […] Growing cells were plated at 2 × 10^4 cells/mL into 24-well microtiter tissue culture plates (Iwaki brand Asahi Glass Co., Chiba, Japan) and incubated for 48 h before the addition of the drugs (the optimal cell number for cytotoxicity assays was determined in preliminary experiments). […] The concentration of DMSO in the final culture medium was 1%.
(§2) The level of cellular reduction of 3-(4,5-dimethylthiazol-2-yl)-2,5-diphenyltetrazolium bromide (MTT) (Dojindo Molecular Technologies, Kumamoto, Japan) was quantified as previously described in the literature with small modifications [46]. The tested compounds were incubated with cells in various concentrations for 48 h. […] The solution was removed, and the formazan crystals were solubilized by an addition of 100 μL DMSO. The absorbance of the converted dye in the living cells was measured at a wavelength of 550 nm using a microplate spectrophotometer Infinitive M1000 (Tecan, Groding, Austria). Cell viability was calculated as a percentage of the viable control cells.

MT-2 cell line = experiment: MTT cytotoxicity assay, MT-2 cells; assay type: cell-based; conditions: Homo sapiens, MT2, 48 h of incubation, mean ± SD, three independent experiments
Experimental: as §1, §2

Jurkat cell line = experiment: MTT cytotoxicity assay, Jurkat cells; assay type: cell-based; conditions: Homo sapiens, 48 h of incubation, mean ± SD, three independent experiments
Experimental: as §1, §2

[2] = test system: HeLa human cervical carcinoma cell line; experiment: MTT cytotoxicity assay, HeLa cells; assay type: cell-based; conditions: for IC50: Homo sapiens, HeLa, 48 h of incubation, mean ± SD, three independent experiments; for activity against the HeLa cell line (in words): 48 h
Experimental: as §1, §2

[3] = test system: peripheral blood mononuclear cells (PBMC); experiment: MTT cytotoxicity assay, PBMC; assay type: cell-based
Experimental: as §1, §2

HeLa cells = experiment: Apoptotic/necrotic/healthy cells detection assay (annexin V/ethidium homodimer III staining); assay type: cell-based, human; conditions: IC50 concentration; for apoptotic activity: 3 h, approximately 100 stained cells counted; for apoptotic and necrotic effects: 24 h and 48 h, data not shown
Experimental: Then, detection of apoptotic/necrotic/healthy cells was performed according to the manufacturer’s instructions (PromoKine, Heidelberg, Germany). After the cells were washed twice with 1× binding buffer, a staining solution containing 50 μL of 1 × binding buffer, 2 μL of FITC-Annexin V solution, 2 μL of ethidium homodimer III solution, and 2 μL of Hoechst 33,342 solution was added and the cells were incubated for 15 min at room temperature (RT), protected from light. The cells were washed with 1 × binding buffer, analyzed by the all-in-one fluorescence microscope Biorevo Fluorescence BZ-9000 (Keyence, Osaka, Japan), and counted as described previously in [47].

ABL1 = target: T1, ABL1 (Homo sapiens, UniProt P00519); experiment: Kinase inhibition assay (TK-2 profiling, ADP-Glo), ABL1; assay type: biochemical; conditions: 1 h at room temperature
T1 construct: purchased Promega Corporation
T1 sequence (P00519 whole entry): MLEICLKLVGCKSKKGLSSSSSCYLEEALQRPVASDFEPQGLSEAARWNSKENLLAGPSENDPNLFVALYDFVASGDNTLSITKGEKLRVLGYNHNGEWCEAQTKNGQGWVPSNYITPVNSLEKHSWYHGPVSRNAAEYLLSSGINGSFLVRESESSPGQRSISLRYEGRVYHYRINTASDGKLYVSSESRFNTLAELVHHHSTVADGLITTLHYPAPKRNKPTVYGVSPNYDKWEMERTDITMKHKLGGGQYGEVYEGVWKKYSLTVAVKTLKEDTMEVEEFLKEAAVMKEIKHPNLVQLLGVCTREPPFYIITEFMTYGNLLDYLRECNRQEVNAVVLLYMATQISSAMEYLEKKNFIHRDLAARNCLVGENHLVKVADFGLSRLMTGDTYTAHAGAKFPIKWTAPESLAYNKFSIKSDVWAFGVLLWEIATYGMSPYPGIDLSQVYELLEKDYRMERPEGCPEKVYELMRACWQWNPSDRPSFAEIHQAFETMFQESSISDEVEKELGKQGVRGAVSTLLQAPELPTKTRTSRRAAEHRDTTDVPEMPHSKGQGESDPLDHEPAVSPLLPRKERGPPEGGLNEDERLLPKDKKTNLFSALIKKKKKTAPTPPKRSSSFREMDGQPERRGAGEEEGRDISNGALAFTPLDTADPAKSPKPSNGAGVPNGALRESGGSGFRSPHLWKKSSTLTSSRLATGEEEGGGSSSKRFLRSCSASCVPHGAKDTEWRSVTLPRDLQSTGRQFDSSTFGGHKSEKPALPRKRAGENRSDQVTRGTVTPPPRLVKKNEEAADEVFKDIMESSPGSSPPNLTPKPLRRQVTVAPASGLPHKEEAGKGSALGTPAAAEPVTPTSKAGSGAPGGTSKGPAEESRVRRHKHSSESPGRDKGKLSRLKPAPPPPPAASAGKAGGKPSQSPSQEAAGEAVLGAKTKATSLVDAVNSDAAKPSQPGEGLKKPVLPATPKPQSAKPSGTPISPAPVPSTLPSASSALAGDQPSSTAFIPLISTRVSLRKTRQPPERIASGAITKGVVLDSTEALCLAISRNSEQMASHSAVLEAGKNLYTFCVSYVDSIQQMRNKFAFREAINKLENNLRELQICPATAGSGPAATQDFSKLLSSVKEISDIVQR
Experimental: (§3) Kinase selectivity profiling system (TK-2) assays were performed according to the manufacturer’s instructions (Promega Corporation, Madison, WI, USA). Multipoint dose-response experiments were performed using eight kinases, namely: ABL1, BRK, BTK, CSK, FYN A, LCK, LYN B, and SRC. […] After 1 h of incubation at room temperature, kinase activity was quantified using the ADP-Glo Kinase Assay (Promega Corporation). Kinase inhibition was quantified using an Infinitive M1000 luminescence microplate spectrophotometer (Tecan, Groding, Austria).

LCK = target: T2, LCK (Homo sapiens, UniProt P06239); experiment: Kinase inhibition assay (TK-2 profiling, ADP-Glo), LCK; assay type: biochemical
T2 construct: purchased Promega Corporation
T2 sequence (P06239 whole entry): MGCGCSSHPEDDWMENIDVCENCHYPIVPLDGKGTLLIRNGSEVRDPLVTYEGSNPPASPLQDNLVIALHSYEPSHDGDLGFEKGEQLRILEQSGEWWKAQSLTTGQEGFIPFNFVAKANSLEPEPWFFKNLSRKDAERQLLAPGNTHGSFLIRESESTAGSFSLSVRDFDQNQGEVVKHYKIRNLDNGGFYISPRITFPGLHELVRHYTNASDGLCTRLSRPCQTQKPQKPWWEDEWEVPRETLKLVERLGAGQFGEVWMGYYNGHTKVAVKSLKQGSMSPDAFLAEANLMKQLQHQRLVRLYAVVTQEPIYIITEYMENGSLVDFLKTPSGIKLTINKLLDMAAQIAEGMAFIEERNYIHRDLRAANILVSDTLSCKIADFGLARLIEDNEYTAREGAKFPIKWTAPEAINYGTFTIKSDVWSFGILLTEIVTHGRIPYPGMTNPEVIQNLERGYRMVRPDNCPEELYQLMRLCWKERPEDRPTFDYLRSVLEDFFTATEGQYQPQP
Experimental: as §3

SRC = target: T3, SRC (Homo sapiens, UniProt P12931); experiment: Kinase inhibition assay (TK-2 profiling, ADP-Glo), SRC; assay type: biochemical
T3 construct: purchased Promega Corporation
T3 sequence (P12931 whole entry): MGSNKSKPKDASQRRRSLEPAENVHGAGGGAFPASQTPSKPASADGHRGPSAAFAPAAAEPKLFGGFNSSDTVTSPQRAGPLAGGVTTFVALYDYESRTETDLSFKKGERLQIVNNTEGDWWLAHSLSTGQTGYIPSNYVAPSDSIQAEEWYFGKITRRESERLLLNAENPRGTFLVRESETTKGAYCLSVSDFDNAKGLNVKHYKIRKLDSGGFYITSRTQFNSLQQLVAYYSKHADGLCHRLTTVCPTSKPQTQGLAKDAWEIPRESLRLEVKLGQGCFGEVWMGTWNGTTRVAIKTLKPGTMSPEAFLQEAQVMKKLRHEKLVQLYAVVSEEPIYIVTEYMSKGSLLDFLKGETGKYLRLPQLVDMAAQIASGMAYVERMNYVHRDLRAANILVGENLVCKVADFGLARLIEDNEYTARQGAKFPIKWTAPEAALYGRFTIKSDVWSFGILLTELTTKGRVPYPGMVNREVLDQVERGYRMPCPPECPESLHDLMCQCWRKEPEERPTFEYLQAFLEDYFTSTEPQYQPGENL
Experimental: as §3

BRK = BRK (Homo sapiens, UniProt Q13882); experiment: Kinase inhibition assay (TK-2 profiling, ADP-Glo), BRK
BRK, sequence (Q13882 whole entry): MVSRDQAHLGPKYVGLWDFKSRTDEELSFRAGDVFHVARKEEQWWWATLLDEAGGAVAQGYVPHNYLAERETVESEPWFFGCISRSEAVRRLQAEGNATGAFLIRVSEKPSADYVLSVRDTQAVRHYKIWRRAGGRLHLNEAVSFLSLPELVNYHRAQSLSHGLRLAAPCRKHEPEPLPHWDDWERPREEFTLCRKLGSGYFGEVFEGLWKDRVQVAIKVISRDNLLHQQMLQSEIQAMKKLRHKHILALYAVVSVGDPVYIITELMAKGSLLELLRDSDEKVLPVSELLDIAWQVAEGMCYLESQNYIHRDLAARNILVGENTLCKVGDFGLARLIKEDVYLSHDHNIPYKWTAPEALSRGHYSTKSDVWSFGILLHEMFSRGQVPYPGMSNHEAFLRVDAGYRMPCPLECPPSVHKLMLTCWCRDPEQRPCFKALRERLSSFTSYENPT
Experimental: as §3

BTK = BTK (Homo sapiens, UniProt Q06187); experiment: Kinase inhibition assay (TK-2 profiling, ADP-Glo), BTK
BTK, sequence (Q06187 whole entry): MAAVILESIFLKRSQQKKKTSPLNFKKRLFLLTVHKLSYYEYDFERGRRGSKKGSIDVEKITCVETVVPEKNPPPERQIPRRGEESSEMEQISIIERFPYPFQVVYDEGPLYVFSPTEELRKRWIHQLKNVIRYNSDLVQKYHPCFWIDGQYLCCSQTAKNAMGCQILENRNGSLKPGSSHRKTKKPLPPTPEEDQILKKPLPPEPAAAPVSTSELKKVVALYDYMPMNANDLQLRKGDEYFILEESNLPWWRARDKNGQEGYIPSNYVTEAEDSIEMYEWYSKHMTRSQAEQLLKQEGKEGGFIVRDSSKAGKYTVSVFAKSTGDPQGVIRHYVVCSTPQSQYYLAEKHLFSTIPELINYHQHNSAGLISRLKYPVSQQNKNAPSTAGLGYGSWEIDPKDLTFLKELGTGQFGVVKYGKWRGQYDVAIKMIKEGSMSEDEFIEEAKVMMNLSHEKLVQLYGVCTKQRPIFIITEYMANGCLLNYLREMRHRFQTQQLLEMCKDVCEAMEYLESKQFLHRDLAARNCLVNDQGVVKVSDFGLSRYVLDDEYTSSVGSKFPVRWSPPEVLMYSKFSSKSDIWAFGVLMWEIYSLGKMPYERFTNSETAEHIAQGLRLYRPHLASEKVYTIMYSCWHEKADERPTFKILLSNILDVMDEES
Experimental: as §3

CSK = CSK (Homo sapiens, UniProt P41240); experiment: Kinase inhibition assay (TK-2 profiling, ADP-Glo), CSK
CSK, sequence (P41240 whole entry): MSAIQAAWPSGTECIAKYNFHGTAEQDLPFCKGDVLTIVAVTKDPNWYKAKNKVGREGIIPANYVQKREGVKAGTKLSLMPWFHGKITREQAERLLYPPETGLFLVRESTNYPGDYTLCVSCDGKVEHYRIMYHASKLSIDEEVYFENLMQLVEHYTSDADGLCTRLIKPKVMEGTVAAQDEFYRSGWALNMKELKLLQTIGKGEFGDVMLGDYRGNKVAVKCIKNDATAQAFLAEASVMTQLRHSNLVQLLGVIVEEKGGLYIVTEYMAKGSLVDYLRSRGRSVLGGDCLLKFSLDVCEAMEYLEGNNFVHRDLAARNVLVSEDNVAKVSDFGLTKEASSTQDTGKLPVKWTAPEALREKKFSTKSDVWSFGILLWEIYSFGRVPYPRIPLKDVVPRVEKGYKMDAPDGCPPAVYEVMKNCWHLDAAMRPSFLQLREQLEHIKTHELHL
Experimental: as §3

FYN A = FYN A (Homo sapiens, UniProt P06241); experiment: Kinase inhibition assay (TK-2 profiling, ADP-Glo), FYN A
FYN A, sequence (P06241 whole entry): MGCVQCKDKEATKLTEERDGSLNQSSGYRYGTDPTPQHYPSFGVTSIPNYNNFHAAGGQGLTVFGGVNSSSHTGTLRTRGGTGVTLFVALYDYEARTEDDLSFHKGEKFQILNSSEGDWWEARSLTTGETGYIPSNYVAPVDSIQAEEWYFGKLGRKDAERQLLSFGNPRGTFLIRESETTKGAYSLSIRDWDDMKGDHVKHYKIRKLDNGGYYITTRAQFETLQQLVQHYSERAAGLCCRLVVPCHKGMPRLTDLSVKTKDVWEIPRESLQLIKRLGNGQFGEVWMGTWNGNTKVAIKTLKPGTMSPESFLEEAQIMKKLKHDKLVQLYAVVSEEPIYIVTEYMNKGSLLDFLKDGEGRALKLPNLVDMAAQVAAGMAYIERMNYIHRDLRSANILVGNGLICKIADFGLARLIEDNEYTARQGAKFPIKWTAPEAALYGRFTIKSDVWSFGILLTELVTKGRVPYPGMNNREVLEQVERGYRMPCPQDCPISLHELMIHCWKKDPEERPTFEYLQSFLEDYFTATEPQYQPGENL
Experimental: as §3

LYN B = LYN B (Homo sapiens, UniProt P07948); experiment: Kinase inhibition assay (TK-2 profiling, ADP-Glo), LYN B
LYN B, sequence (P07948 1-491 isoform P07948-2): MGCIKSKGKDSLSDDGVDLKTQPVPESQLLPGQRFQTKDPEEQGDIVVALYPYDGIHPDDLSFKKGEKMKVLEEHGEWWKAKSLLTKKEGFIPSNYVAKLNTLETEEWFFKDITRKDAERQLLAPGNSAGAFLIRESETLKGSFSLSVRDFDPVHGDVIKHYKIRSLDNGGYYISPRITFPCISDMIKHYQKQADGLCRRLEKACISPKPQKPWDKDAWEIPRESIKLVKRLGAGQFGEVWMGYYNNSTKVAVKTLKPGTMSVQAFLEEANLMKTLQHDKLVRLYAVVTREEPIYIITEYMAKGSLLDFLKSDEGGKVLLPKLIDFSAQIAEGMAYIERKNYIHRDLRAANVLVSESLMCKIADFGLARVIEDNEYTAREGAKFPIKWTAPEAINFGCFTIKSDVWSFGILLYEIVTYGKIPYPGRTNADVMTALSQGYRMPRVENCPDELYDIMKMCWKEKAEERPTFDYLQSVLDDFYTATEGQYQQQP
Experimental: as §3

[4] = ADP-Glo, 1 h at room temperature

Row | Structure (SMILES) | IC50 [1] [µM] | IC50 (MT-2 cell line) [µM] | IC50 (Jurkat cell line) [µM] | IC50 [2] [µM] | melting point [°C] | further results
1 | O=C(CSc1nnc(Nc2ccc(C(F)(F)F)cc2)s1)Nc1nc2ccc(Cl)cc2s1 [Compound 6, N-(6-Chlorobenzothiazol-2-yl)-2-((5-((4-(trifluoromethyl)phenyl)amino)-1,3,4-thiadiazol-2-yl)thio)acetamide] | > 300 | 38.3 ± 2 | 54.4 ± 8 | 28.7 ± 10 |  | 
2 | O=C(CSc1nnc(Nc2ccc(C(F)(F)F)cc2)s1)Nc1nc2ccc(F)cc2s1 [Compound 5, N-(6-Fluorobenzothiazol-2-yl)-2-((5-((4-(trifluoromethyl)phenyl)amino)-1,3,4-thiadiazol-2-yl)thio)acetamide] | > 300 | 78.5 ± 12 | 97.9 ± 10 | 17.3 ± 8 | 309.9 to 310.8 | 
3 | O=C(CSc1nnc(Nc2ccc(C(F)(F)F)cc2)s1)Nc1nc2ccc([N+](=O)[O-])cc2s1 [Compound 10, N-(6-Nitrobenzothiazol-2-yl)-2-((5-((4-(trifluoromethyl)phenyl)amino)-1,3,4-thiadiazol-2-yl)thio)acetamide] | > 300 | > 300 | > 300 | 75.3 ± 9 | 311.8 to 312.5 | activity against the HeLa cell line (in words) [2]: no significant activity
4 | CCOC(=O)Cc1csc(NC(=O)CSc2nnc(Nc3ccc(C(F)(F)F)cc3)s2)n1 [Compound 3, Ethyl 2-(2-(2-((5-((4-(trifluoromethyl)phenyl)amino)-1,3,4-thiadiazol-2-yl)thio)acetamido)thiazol-4-yl)acetate] | > 300 | > 300 | 129 ± 6 | 14.1 ± 5 |  | 
5 | Cc1ccc2nc(NC(=O)CSc3nnc(Nc4ccc(C(F)(F)F)cc4)s3)sc2c1 [Compound 7, N-(6-Methylbenzothiazol-2-yl)-2-((5-((4-(trifluoromethyl)phenyl)amino)-1,3,4-thiadiazol-2-yl)thio)acetamide] | > 300 | 198 ± 11 | > 300 | 30.2 ± 4 |  | 
6 | O=C(CSc1nnc(Nc2ccc(C(F)(F)F)cc2)s1)Nc1nccs1 [Compound 1, N-(Thiazol-2-yl)-2-((5-((4-(trifluoromethyl)phenyl)amino)-1,3,4-thiadiazol-2-yl)thio)acetamide] | > 300 | > 300 | > 300 | 135 ± 12 | 271.4 to 272.5 | activity against the K562 cell line (in words) ([1]; 48 h): inactive; activity against the HeLa cell line (in words) [2]: no significant activity
7 | COc1ccc2nc(NC(=O)CSc3nnc(Nc4ccc(C(F)(F)F)cc4)s3)sc2c1 [Compound 8, N-(6-Methoxybenzothiazol-2-yl)-2-((5-((4-(trifluoromethyl)phenyl)amino)-1,3,4-thiadiazol-2-yl)thio)acetamide] | > 300 | > 300 | > 300 | 30.9 ± 4 |  | 
8 | O=C(CSc1nnc(Nc2ccc(C(F)(F)F)cc2)s1)Nc1ncc([N+](=O)[O-])s1 [Compound 2, N-(5-Nitrothiazol-2-yl)-2-((5-((4-(trifluoromethyl)phenyl)amino)-1,3,4-thiadiazol-2-yl)thio)acetamide] | 33 ± 4 | 167 ± 8 | 17.9 ± 4 | 12.4 ± 2 | 275 to 276.5 | IC50 ([3]; PBMC, MTT, 48 h of incubation, mean ± SD, three independent experiments): 141 ± 16 µM; times lower cytotoxicity on PBMC than imatinib ([3]; ratio of PBMC IC50 values, 48 h): ~ 5 times; apoptotic activity (HeLa cells): 96%; apoptotic and necrotic effects (HeLa cells): induced late apoptosis or necrosis; IC50 (ABL1): 7.4 µM; IC50 (LCK; [4]): 40.1 µM; inhibition of LCK (in words) (LCK; IC50 in the micromolar range): significantly inhibited; inhibition of SRC (in words) (SRC): inactive; IC50 (SRC; [4]): > 100 µM; IC50 (BRK): > 100 µM; inhibition of BRK (in words) (BRK): inactive; IC50 (BTK): 30.2 µM; inhibition of BTK (in words) (BTK; IC50 in the micromolar range): significantly inhibited; IC50 (CSK): 18.4 µM; inhibition of CSK (in words) (CSK; IC50 in the micromolar range): significantly inhibited; IC50 (FYN A): 70.8 µM; inhibition of FYN A (in words) (FYN A; IC50 in the micromolar range): significantly inhibited; IC50 (LYN B): > 100 µM; inhibition of LYN B (in words) (LYN B): inactive
9 | CCOc1ccc2nc(NC(=O)CSc3nnc(Nc4ccc(C(F)(F)F)cc4)s3)sc2c1 [Compound 9, N-(6-Ethoxybenzothiazol-2-yl)-2-((5-((4-(trifluoromethyl)phenyl)amino)-1,3,4-thiadiazol-2-yl)thio)acetamide] | > 300 | > 300 | 96.1 ± 7 | 69.4 ± 7 |  | activity against the HeLa cell line (in words) [2]: no significant activity
10 | Cc1ccc(NC(=O)c2ccc(CN3CCN(C)CC3)cc2)cc1Nc1nccc(-c2cccnc2)n1 [Imatinib, imatinib, reference compound] |  |  |  |  |  | apoptotic activity (HeLa cells): 78%; apoptotic and necrotic effects (HeLa cells): induced late apoptosis or necrosis
11 | O=C(CSc1nnc(Nc2ccc(C(F)(F)F)cc2)s1)Nc1nc2ccccc2s1 [Compound 4, N-(Benzothiazol-2-yl)-2-((5-((4-(trifluoromethyl)phenyl)amino)-1,3,4-thiadiazol-2-yl)thio)acetamide] | > 300 | 267 ± 14 | > 300 | 32.9 ± 2 |  | 
